According to patent US20240208992A1, “MACROCYCLES AS CFTR MODULATORS” (Idorsia Pharmaceuticals Ltd, priority 2021, published 2024):

Molecular target: human F508del-CFTR (Homo sapiens, UniProt P13569, DEL508-508)
Assay: F508del-CFTR cell surface expression (corrector activity), DiscoveRx ß-galactosidase complementation chemiluminescence assay in recombinant U2OS cell line;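 further: U2OS cells co-expressing ProLink-tagged F508del-CFTR and a membrane-anchored enzyme acceptor, where more surface CFTR restores β-galactosidase activity measured by chemiluminescence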
Settings: for EC50: EC50, F508del-CFTR cell surface expression; for Emax: U2OS
[1] = U2OS cells, 16h compound incubation, geomean values
[2] = in relation to Emax of corrector lumacaftor (=100%), arithmetic mean values
[3] = U2OS cell line, 16h compound incubation, geomean values
[4] = in relation to the Emax of the corrector lumacaftor (=100%), U2OS cell line, 16h compound incubation, arithmetic mean values

human F508del-CFTR, sequence (P13569 with tags, fused parts or gaps DEL508-508): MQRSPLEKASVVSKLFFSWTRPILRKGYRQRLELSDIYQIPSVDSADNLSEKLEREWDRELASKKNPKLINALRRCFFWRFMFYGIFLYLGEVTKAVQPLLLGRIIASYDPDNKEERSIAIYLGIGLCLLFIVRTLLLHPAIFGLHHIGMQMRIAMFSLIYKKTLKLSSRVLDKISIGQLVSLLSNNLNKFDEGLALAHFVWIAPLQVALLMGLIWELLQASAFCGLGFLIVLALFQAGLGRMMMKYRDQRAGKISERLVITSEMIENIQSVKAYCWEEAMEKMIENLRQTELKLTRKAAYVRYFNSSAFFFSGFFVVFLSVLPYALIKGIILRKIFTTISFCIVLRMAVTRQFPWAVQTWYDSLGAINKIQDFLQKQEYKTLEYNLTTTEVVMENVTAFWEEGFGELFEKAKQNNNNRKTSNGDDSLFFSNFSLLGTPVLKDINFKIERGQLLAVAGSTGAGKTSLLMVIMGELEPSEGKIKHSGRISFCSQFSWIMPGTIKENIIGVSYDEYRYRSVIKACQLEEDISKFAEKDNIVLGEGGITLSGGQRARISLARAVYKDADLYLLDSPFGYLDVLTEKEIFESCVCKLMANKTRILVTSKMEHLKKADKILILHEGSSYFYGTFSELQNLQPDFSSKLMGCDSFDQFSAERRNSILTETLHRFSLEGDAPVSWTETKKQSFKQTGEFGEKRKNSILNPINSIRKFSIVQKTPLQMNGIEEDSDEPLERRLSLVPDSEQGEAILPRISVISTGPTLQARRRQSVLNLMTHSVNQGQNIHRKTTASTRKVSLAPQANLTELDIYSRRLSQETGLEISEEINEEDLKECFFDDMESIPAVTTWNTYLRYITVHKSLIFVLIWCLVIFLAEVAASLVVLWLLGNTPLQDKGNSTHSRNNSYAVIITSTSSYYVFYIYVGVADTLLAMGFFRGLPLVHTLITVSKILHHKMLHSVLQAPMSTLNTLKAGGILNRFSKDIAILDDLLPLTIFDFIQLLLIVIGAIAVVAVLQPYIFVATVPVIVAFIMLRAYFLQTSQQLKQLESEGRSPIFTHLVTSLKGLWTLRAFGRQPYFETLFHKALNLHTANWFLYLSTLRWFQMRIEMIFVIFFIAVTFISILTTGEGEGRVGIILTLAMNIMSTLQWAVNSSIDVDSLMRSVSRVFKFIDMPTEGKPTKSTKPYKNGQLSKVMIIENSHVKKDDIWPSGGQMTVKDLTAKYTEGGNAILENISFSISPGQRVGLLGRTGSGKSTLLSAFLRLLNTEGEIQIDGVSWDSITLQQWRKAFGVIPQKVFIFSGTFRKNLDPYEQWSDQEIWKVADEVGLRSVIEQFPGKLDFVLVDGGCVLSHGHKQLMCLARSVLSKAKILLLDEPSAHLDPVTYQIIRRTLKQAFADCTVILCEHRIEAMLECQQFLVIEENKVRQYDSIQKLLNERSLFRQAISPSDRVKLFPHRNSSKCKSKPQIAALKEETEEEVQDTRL

SMILES	EC50 [3] [nM]	Emax [4] [%]	also measured
COc1cccc(CCNC(=O)[C@@H]2CC(=O)N(C)[C@@H](CC(C)C)C(=O)N(C)C3(CC3)C(=O)N[C@H](Cc3ccccc3)COc3ccc4nc(C)oc4c3C(=O)N2)c1 [Example 628, (8′R,14′S,18′S)-8′-benzyl-14′-isobutyl-N-(3-methoxyphenethyl)-2′,12′,15′-trimethyl-10′,13′,16′,20′-tetraoxo-7′,8′,9′,10′,13′,14′,15′,16′,17′,18′,19′,20′-dodecahydro-12′H-spiro[cyclopropane-1,11′-oxazolo[4′,5′:5,6]benzo[1,2-p][1]oxa[4,7,10,14]tetraazacycloheptadecine]-18′-carboxamide]	–	–	EC50 [1]: 363 nM; Emax [2]: 355%
CN1C(=O)C[C@@H](C(=O)NCCc2ccc3c(c2)OCO3)NC(=O)c2c(ccc3ccccc23)OC[C@@H](Cc2ccccc2)NC(=O)CN(C[C@@H]2CCCCO2)C(=O)[C@@H]1CC1CCCC1 (mixture of isomers) [Example 284, (3RS,7S,13R)-N-(2-(benzo[d][1,3]dioxol-5-yl)ethyl)-13-benzyl-7-(cyclopentylmethyl)-6-methyl-1,5,8,11-tetraoxo-9-(((S)-tetrahydro-2H-pyran-2-yl)methyl)-1,2,3,4,5,6,7,8,9,10,11,12,13,14-tetradecahydronaphtho[1,2-p][1]oxa[4,7,10,14]tetraazacycloheptadecine-3-carboxamide]	337	–	–
CC(C)C[C@H]1C(=O)N2CCOC[C@@H]2C(=O)N[C@H](Cc2ccccc2)COc2cnc3ccccc3c2C(=O)N[C@H](C(=O)NCCc2csc(C(C)C)n2)CC(=O)N1C [Example 46, (9S,13S,19aR,22R)-22-benzyl-13-isobutyl-N-(2-(2-isopropylthiazol-4-yl)ethyl)-12-methyl-7,11,14,20-tetraoxo-7,8,9,10,11,12,13,14,16,17,19,19a,20,21,22,23-hexadecahydro-[1,4]oxazino[3′,4′:6,7][1]oxa[4,7,10,14]tetraazacycloheptadecino[17,16-c]quinoline-9-carboxamide]	679	137	–
COc1cccc(CCNC(=O)[C@@H]2CC(=O)N(C)[C@@H](CC(C)C)C(=O)N3CCN(C4CCC4)C[C@H]3C(=O)N[C@H](Cc3ccccc3)COc3cnc4ccccc4c3C(=O)N2)c1 [Example 390, (9S,13S,19aS,22R)-22-benzyl-18-cyclobutyl-13-isobutyl-N-(3-methoxyphenethyl)-12-methyl-7,11,14,20-tetraoxo-7,8,9,10,11,12,13,14,17,18,19,19a,20,21,22,23-hexadecahydro-16H-pyrazino[2′,11:6,7][1]oxa[4,7,10,14]tetraazacycloheptadecino[17,16-c]quinoline-9-carboxamide]	269	188	–
[2H]C([2H])([2H])Oc1cccc(CCNC(=O)[C@@H]2CC(=O)N(C)[C@@H](CC(C)C)C(=O)N(CCC3CCCCC3)CC(=O)N[C@H](Cc3ccccc3)COc3cccc(OC)c3C(=O)N2)c1 [Example 200, (3R,9S,13S)-3-benzyl-7-(2-cyclohexylethyl)-9-isobutyl-16-methoxy-N-(3-(methoxy-d3)phenethyl)-10-methyl-5,8,11,15-tetraoxo-2,3,4,5,6,7,8,9,10,11,12,13,14,15-tetradecahydrobenzo[p][1]oxa[4,7,10,14]tetraazacycloheptadecine-13-carboxamide]	210	270	–
COc1cccc(CCNC(=O)[C@@H]2CC(=O)N(C)[C@@H](CC(C)C)C(=O)N(C)CC(=O)N[C@H](Cc3ccccc3)COc3cc(OC)ccc3C(=O)N2)c1 [Example 232, (3R,9S,13S)-3-benzyl-9-isobutyl-18-methoxy-N-(3-methoxyphenethyl)-7,10-dimethyl-5,8,11,15-tetraoxo-2,3,4,5,6,7,8,9,10,11,12,13,14,15-tetradecahydrobenzo[p][1]oxa[4,7,10,14]tetraazacycloheptadecine-13-carboxamide]	526	105	–
COc1cccc(CCNC(=O)[C@@H]2CC(=O)N(C)[C@@H](CC3CCCCC3)C(=O)N(C[C@@H]3CCCCO3)CC(=O)N[C@H](Cc3ccccc3)COc3cccc(OC)c3C(=O)N2)c1 [Example 314, (3R,9S,13S)-3-benzyl-9-(cyclohexylmethyl)-16-methoxy-N-(3-methoxyphenethyl)-10-methyl-5,8,11,15-tetraoxo-7-(((S)-tetrahydro-2H-pyran-2-yl)methyl)-2,3,4,5,6,7,8,9,10,11,12,13,14,15-tetradecahydrobenzo[p][1]oxa[4,7,10,14]tetraazacycloheptadecine-13-carboxamide]	469	111	–
COc1cncc(S(=O)(=O)N2CCN3C(=O)[C@H](CC(C)C)N(C)C(=O)C[C@@H](C(=O)NCCc4cc(C)no4)NC(=O)c4c(ccc5ccccc45)OC[C@@H](Cc4ccccc4)NC(=O)[C@H]3C2)c1 [Example 479, (4aR,7R,18S,22S)-7-benzyl-22-isobutyl-3-((5-methoxypyridin-3-yl)sulfonyl)-21-methyl-N-(2-(3-methylisoxazol-5-yl)ethyl)-5,16,20,23-tetraoxo-2,3,4,4a,5,6,7,8,16,17,18,19,20,21,22,23-hexadecahydro-1H-naphtho[1,2-p]pyrazino[2,1-f][1]oxa[4,7,10,14]tetraazacycloheptadecine-18-carboxamide]	–	–	EC50 [1]: 480 nM; Emax [2]: 253%
COc1cccc(CCNC(=O)[C@@H]2CC(=O)N(C)[C@@H](CC(C)C)C(=O)N3CCCC[C@H]3C(=O)N[C@H](Cc3ccccc3)COc3ccc4ncoc4c3C(=O)N2)c1 [Example 342, (8S,12S,18aS,21R)-21-benzyl-12-isobutyl-N-(3-methoxyphenethyl)-11-methyl-6,10,13,19-tetraoxo-6,7,8,9,10,11,12,13,16,17,18,18a,19,20,21,22-hexadecahydro-15H-oxazolo[4′,5′:5,6]benzo[1,2-p]pyrido[2,1-f][1]oxa[4,7,10,14]tetraazacycloheptadecine-8-carboxamide]	464	128	–
CC[C@@H]1C(=O)N[C@H](Cc2ccccc2)COc2cc(C)nc(OC)c2C(=O)N[C@H](C(=O)NCCc2cc(OC)no2)CC(=O)N(C)[C@@H](CC(C)C)C(=O)N1C [Example 784, (3R,6R,9S,13S)-3-benzyl-6-ethyl-9-isobutyl-16-methoxy-N-(2-(3-methoxyisoxazol-5-yl)ethyl)-7,10,18-trimethyl-5,8,11,15-tetraoxo-2,3,4,5,6,7,8,9,10,11,12,13,14,15-tetradecahydropyrido[3,4-p][1]oxa[4,7,10,14]tetraazacycloheptadecine-13-carboxamide]	–	–	EC50 [1]: 311 nM; Emax [2]: 391%
Cc1ccc(CCNC(=O)[C@@H]2CC(=O)N(C)[C@@H](CC(C)C)C(=O)N3CCOC[C@@H]3C(=O)N[C@H](Cc3ccccc3)COc3cnc4ccccc4c3C(=O)N2)cc1 [Example 60, (9S,13S,19aR,22R)-22-benzyl-13-isobutyl-12-methyl-N-(4-methylphenethyl)-7,11,14,20-tetraoxo-7,8,9,10,11,12,13,14,16,17,19,19a,20,21,22,23-hexadecahydro-[1,4]oxazino[3′,4′:6,7][1]oxa[4,7,10,14]tetraazacycloheptadecino[17,16-c]quinoline-9-carboxamide]	662	228	–
COc1cc(CCNC(=O)[C@@H]2CC(=O)N(C)[C@@H](CC(C)C)C(=O)N3CCOC[C@@H]3C(=O)N[C@H](Cc3ccccc3)COc3ccc4ccccc4c3C(=O)N2)cc(OC)c1 [Example 325, (4aR,7R,18S,22S)-7-benzyl-N-(3,5-dimethoxyphenethyl)-22-isobutyl-21-methyl-5,16,20,23-tetraoxo-1,2,4,4a,5,6,7,8,16,17,18,19,20,21,22,23-hexadecahydronaphtho[1,2-p][1,4]oxazino[3,4-f][1]oxa[4,7,10,14]tetraazacycloheptadecine-18-carboxamide]	187	237	–
COc1cccc2c1C(=O)N[C@H](C(=O)NCCc1ccc3c(c1)OCO3)CC(=O)N(C)[C@@H](CC1CCCC1)C(=O)N(C[C@H]1CCCCO1)CC(=O)N[C@H](Cc1ccccc1)CO2 [Example 307, (3R,9S,13S)-N-(2-(benzo[d][1,3]dioxol-5-yl)ethyl)-3-benzyl-9-(cyclopentylmethyl)-16-methoxy-10-methyl-5,8,11,15-tetraoxo-7-(((R)-tetrahydro-2H-pyran-2-yl)methyl)-2,3,4,5,6,7,8,9,10,11,12,13,14,15-tetradecahydrobenzo[p][1]oxa[4,7,10,14]tetraazacycloheptadecine-13-carboxamide]	423	113	–
COc1cccc(CCNC(=O)[C@@H]2CC(=O)N(C)[C@@H](CC(C)C)C(=O)N(CC[C@H]3CCCCO3)CC(=O)N[C@H](Cc3ccccc3)COc3ccc4ccccc4c3C(=O)N2)c1 (racemic) [Example 297, (3RS,7S,13R)-13-benzyl-7-isobutyl-N-(3-methoxyphenethyl)-6-methyl-1,5,8,11-tetraoxo-9-(2-((SR)-tetrahydro-2H-pyran-2-yl)ethyl)-1,2,3,4,5,6,7,8,9,10,11,12,13,14-tetradecahydronaphtho[1,2-p][1]oxa[4,7,10,14]tetraazacycloheptadecine-3-carboxamide]	193	225	–
COc1noc(CCNC(=O)[C@@H]2CC(=O)N(C)[C@@H](CC(C)C)C(=O)N(C)C3(CC3)C(=O)N[C@H](Cc3ccccc3)COc3ccc4ncc(F)cc4c3C(=O)N2)n1 [Example 911, (3′S,7′S,13′R)-13′-benzyl-20′-fluoro-7′-isobutyl-N-(2-(3-methoxy-1,2,4-oxadiazol-5-yl)ethyl)-6′,9′-dimethyl-1′,5′,8′,11′-tetraoxo-2′,3′,4′,5′,6′,7′,8′,9′,11′,12′,13′,14′-dodecahydro-1′H-spiro[cyclopropane-1,10′-[1]oxa[4,7,10,14]tetraazacycloheptadecino[16,17-f]quinoline]-3′-carboxamide]	–	–	EC50 (U2OS cells, 16h compound incubation, geomean of several measurements): 531 nM; Emax (in relation to the Emax of the corrector lumacaftor (=100%), U2OS cells, 16h compound incubation, arithmetic mean): 341%
